From ChEMBL document CHEMBL4382231, “Chemical preparation, biological evaluation and 3D-QSAR of ethoxysulfuron derivatives as novel antifungal agents targeting acetohydroxyacid synthase” (Eur J Med Chem, 2019)
Converted amounts (≈) assume the structure as drawn.

Tests used:
Saccharomyces cerevisiae [1] = assay: Antifungal activity against Saccharomyces cerevisiae SC XH1549 cultured in YNB media after 24 hrs by broth microdilution method; assay type: functional; details: SC XH1549, 24 h
Candida albicans [2] = assay: Antifungal activity against fluconazole-resistant Candida albicans isolate g5 cultured in YNB media after 72 hrs by broth microdilution method; assay type: functional; details: isolate g5, 72 h
Candida albicans [3] = assay: Antifungal activity against fluconazole-resistant Candida albicans isolate 17 cultured in YNB media after 72 hrs by broth microdilution method; assay type: functional; details: isolate 17, 72 h
Candida albicans [4] = assay: Antifungal activity against Candida albicans SC5314 cultured in YNB media after 48 hrs by broth microdilution method; assay type: functional; details: SC5314, 48 h
Candida albicans [5] = assay: Antifungal activity against fluconazole-resistant Candida albicans isolate g5 cultured in YNB media after 24 hrs by broth microdilution method; assay type: functional; details: isolate g5, 24 h
Candida parapsilosis [6] = assay: Antifungal activity against Candida parapsilosis ATCC 22019 cultured in YNB media after 72 hrs by broth microdilution method; assay type: functional; details: Lodderomyces parapsilosis, ATCC 22019, 72 h
Candida albicans [7] = assay: Antifungal activity against fluconazole-resistant Candida albicans isolate g5 cultured in YNB media after 48 hrs by broth microdilution method; assay type: functional; details: isolate g5, 48 h
[8] = Inhibition of Candida albicans AHAS catalytic subunit using pyruvate as substrate measured after 30 mins by colorimetric method
Saccharomyces cerevisiae [9] = assay: Antifungal activity against Saccharomyces cerevisiae SC XH1549 cultured in YNB media after 72 hrs by broth microdilution method; assay type: functional; details: SC XH1549, 72 h
Saccharomyces cerevisiae [10] = assay: Antifungal activity against Saccharomyces cerevisiae SC XH1549 cultured in YNB media after 48 hrs by broth microdilution method; assay type: functional; details: SC XH1549, 48 h
Candida albicans [11] = assay: Antifungal activity against Candida albicans SC5314 cultured in YNB media after 24 hrs by broth microdilution method; assay type: functional; details: SC5314, 24 h
Candida albicans [12] = assay: Antifungal activity against fluconazole-resistant Candida albicans isolate 17 cultured in YNB media after 48 hrs by broth microdilution method; assay type: functional; details: isolate 17, 48 h
Candida albicans [13] = assay: Antifungal activity against Candida albicans SC5314 cultured in YNB media after 72 hrs by broth microdilution method; assay type: functional; details: SC5314, 72 h
Candida albicans [14] = assay: Antifungal activity against fluconazole-resistant Candida albicans isolate 17 cultured in YNB media after 24 hrs by broth microdilution method; assay type: functional; details: isolate 17, 24 h
Candida parapsilosis [15] = assay: Antifungal activity against Candida parapsilosis ATCC 22019 cultured in YNB media after 48 hrs by broth microdilution method; assay type: functional; details: Lodderomyces parapsilosis, ATCC 22019, 48 h
Candida parapsilosis [16] = assay: Antifungal activity against Candida parapsilosis ATCC 22019 cultured in YNB media after 24 hrs by broth microdilution method; assay type: functional; details: Lodderomyces parapsilosis, ATCC 22019, 24 h
Candida albicans [17] = assay: Antifungal activity against Candida albicans SC5314 cultured in RPMI 1640 media after 24 hrs by broth microdilution method; assay type: functional; details: SC5314, 24 h

Structure (SMILES) | Ki [8] [nM] | MIC (Candida albicans [11]) [µg/mL] | MIC (Candida albicans [17]) [µg/mL] | pKi [8] | further results
CCOc1ccccc1OS(=O)(=O)[N-]C(=O)Nc1nc(OC)cc(OC)n1.[Na+] | 22.1 | 0.625 |  |  | MIC (Saccharomyces cerevisiae [1]): 5 µg/mL; MIC (Candida albicans [2]): 2.5 µg/mL; MIC (Candida albicans [3]): 2.5 µg/mL; MIC (Candida albicans [4]): 1.25 µg/mL; MIC (Candida albicans [5]): 1.25 µg/mL; MIC (Candida parapsilosis [6]): 2.5 µg/mL; MIC (Candida albicans [7]): 1.25 µg/mL; MIC (Saccharomyces cerevisiae [9]): 5 µg/mL; MIC (Saccharomyces cerevisiae [10]): 5 µg/mL; MIC (Candida albicans [12]): 2.5 µg/mL; MIC (Candida albicans [13]): 1.25 µg/mL; MIC (Candida albicans [14]): 1.25 µg/mL; MIC (Candida parapsilosis [15]): 2.5 µg/mL; MIC (Candida parapsilosis [16]): 1.25 µg/mL
CCOC(=O)c1ccccc1OS(=O)(=O)NC(=O)Nc1nc(OC)cc(OC)n1 | 6.3 | 1.25 (≈ 2.93 µM) |  |  | MIC (Saccharomyces cerevisiae [1]): 2.5 µg/mL (≈ 5.86 µM); MIC (Candida albicans [2]): 2.5 µg/mL (≈ 5.86 µM); MIC (Candida albicans [3]): 5 µg/mL (≈ 11.7 µM); MIC (Candida albicans [4]): 2.5 µg/mL (≈ 5.86 µM); MIC (Candida albicans [5]): 2.5 µg/mL (≈ 5.86 µM); MIC (Candida parapsilosis [6]): 2.5 µg/mL (≈ 5.86 µM); MIC (Candida albicans [7]): 2.5 µg/mL (≈ 5.86 µM); MIC (Saccharomyces cerevisiae [9]): 5 µg/mL (≈ 11.7 µM); MIC (Saccharomyces cerevisiae [10]): 5 µg/mL (≈ 11.7 µM); MIC (Candida albicans [12]): 5 µg/mL (≈ 11.7 µM); MIC (Candida albicans [13]): 2.5 µg/mL (≈ 5.86 µM); MIC (Candida albicans [14]): 2.5 µg/mL (≈ 5.86 µM); MIC (Candida parapsilosis [15]): 2.5 µg/mL (≈ 5.86 µM); MIC (Candida parapsilosis [16]): 1.25 µg/mL (≈ 2.93 µM)
C[C@@H]1[C@H](O)[C@@H](C)/C=C/C=C/C=C/C=C/C=C/C=C/C=C/[C@H](O[C@@H]2O[C@H](C)[C@@H](O)[C@H](N)[C@@H]2O)C[C@@H]2O[C@](O)(C[C@@H](O)C[C@@H](O)[C@H](O)CC[C@@H](O)C[C@@H](O)CC(=O)O[C@H]1C)C[C@H](O)[C@H]2C(=O)O [AMPHOTERICIN B] |  |  | 1.56 (≈ 1.69 µM) |  | MIC (Saccharomyces cerevisiae [1]): 2.5 µg/mL (≈ 2.71 µM); MIC (Candida parapsilosis [6]): 2.5 µg/mL (≈ 2.71 µM); MIC (Saccharomyces cerevisiae [9]): 2.5 µg/mL (≈ 2.71 µM); MIC (Saccharomyces cerevisiae [10]): 2.5 µg/mL (≈ 2.71 µM); MIC (Candida parapsilosis [15]): 2.5 µg/mL (≈ 2.71 µM); MIC (Candida parapsilosis [16]): 2.5 µg/mL (≈ 2.71 µM)
Cc1cc(C)nc(NC(=O)[N-]S(=O)(=O)Oc2ccccc2C(=O)Oc2ccccc2)n1.[Na+] | 25700 | > 100 | > 100 | 4.6 | 
CCOC(=O)c1ccc(OS(=O)(=O)[N-]C(=O)Nc2nc(Cl)cc(OC)n2)cc1.[Na+] | 15400 | > 100 | > 100 | 4.81 | 
Cc1cc(Cl)nc(NC(=O)[N-]S(=O)(=O)Oc2ccccc2OCCI)n1.[Na+] | 885 | > 100 | > 100 | 6.05 | 
CCOC(=O)c1ccccc1OS(=O)(=O)[N-]C(=O)Nc1nc(C)cc(OC)n1.[Na+] | 7.1 | 10 | 25 | 8.16 | 
CCCOC(=O)c1ccccc1OS(=O)(=O)[N-]C(=O)Nc1nc(Cl)cc(OC)n1.[Na+] | 235 | > 100 | > 100 | 6.62 | 
CCCOC(=O)c1ccccc1OS(=O)(=O)[N-]C(=O)Nc1nc(C)cc(C)n1.[Na+] | 2690 | > 100 | > 100 | 5.57 | 
COc1cc(Cl)nc(NC(=O)[N-]S(=O)(=O)Oc2ccccc2C(=O)OCC(F)(F)F)n1.[Na+] | 265 | > 100 | > 100 | 6.57 | 
CCCOC(=O)c1ccccc1OS(=O)(=O)[N-]C(=O)Nc1nc(C)cc(OC)n1.[Na+] | 1490 | > 100 | > 100 |  | 
Cc1cc(Cl)nc(NC(=O)[N-]S(=O)(=O)Oc2ccccc2C(=O)Oc2ccccc2)n1.[Na+] | > 50000 | > 100 | > 100 |  | 
COc1cc(C)nc(NC(=O)[N-]S(=O)(=O)Oc2ccccc2OCCI)n1.[Na+] | 91 | 10 | > 100 | 7.04 | 
COc1cc(C)nc(NC(=O)[N-]S(=O)(=O)Oc2ccccc2C(=O)OC(C)C)n1.[Na+] | 268 | 80 | > 100 |  | 
COC(=O)c1ccccc1OS(=O)(=O)[N-]C(=O)Nc1nc(I)cc(OC)n1.[Na+] | 66 | > 100 | > 100 | 7.18 | 
